Data from patent publication US20240294479A1, “POLYMORPHS OF 2-(3,5-DICHLOROPHENYL)-L,3-BENZOXAZOLE-6-CARBOXYLIC ACID” (HONOUR LAB LIMITED, priority 2021, published 2024).
Values after ≈ are worked out from the molar mass of the structure shown.

How the values were obtained:
[1] = at pH 5 and below; EMEA scientific discussion; cited from earlier work
[2] = Solubility of Tafamidis crystalline forms in water at different pH; assay type: physicochemical
Method: However the crystalline Forms of the present invention has water solubility greater than or equal to 3 μg/mL at pH 5 and below.
The solubility of Tafamidis crystallin Form HN3 in water at different pH is as follows: […]

Row | solubility ([2]; pH 3, aqueous buffer) [µg/mL] | solubility ([2]; pH 4, aqueous buffer) [µg/mL] | solubility ([2]; pH 5, aqueous buffer) [µg/mL] | SMILES | water solubility [1] [µg/mL]
1 | – | – | – | O=C(O)c1ccc2nc(-c3cc(Cl)cc(Cl)c3)oc2c1 [Tafamidis (Form 1), 2-(3,5-dichlorophenyl)-1,3-benzoxazole-6-carboxylic acid] | < 2
2 | 3 (≈ 9.74 µM) | 3 (≈ 9.74 µM) | 3 (≈ 9.74 µM) | O=C(O)c1ccc2nc(-c3cc(Cl)cc(Cl)c3)oc2c1 [Form HN3, 2-(3,5-dichlorophenyl)-1,3-benzoxazole-6-carboxylic acid] | –
